Measured values taken from patent US20230041563A1, “N-(1,3,4-OXADIAZOL-2-YL)ARYLCARBOXAMIDES OR SALTS THEREOF, PREPARATION METHODS, HERBICIDAL COMPOSITIONS AND USES THEREOF” (priority 2018, published 2023).

Columns and labels:
Type in all cases: in vivo
[1] = test system: weeds; assay: Actual control effects and combined effects of mixtures of active ingredients (i) and (ii), stem-leaf treatment, Gowing method; details: stem-leaf treatment, 20 days
[2] = test system: Stellaria media; assay: Weeding effect in post-emergence stage (greenhouse pot spray)
Outline: (§1)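 Pot-grown greenhouse plants, 2-3 leaf stage; spray-tower application; formulation acetone/Tween 80 plus methyl oleate EC 1.5 liter/ha as synergist; rates 500, 250, 125, 60, 15 g a.i./ha; assessed 3 wk post-treatment as fresh weight control, n=3.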

[3] = test system: Amaranthus retroflexus; assay: as above
Outline: as §1

[4] = test system: Abutilon theophrasti; assay: as above
Outline: as §1

[5] = test system: Setaria viridis; assay: as above
Outline: as §1

[6] = test system: Digitaria sanguinalis; assay: as above
Outline: as §1

[7] = test system: Echinochloa crusgalli; assay: as above
Outline: as §1

[8] = test system: Japonica rice (Huaidao No. 5); assay: Safety test of control experiments on rice
Source text: (§2) The activity level criteria for plant damage (i.e., growth control rate) are as follows: Comparative Experiments: [table]

[9] = test system: Indica rice (Huanghuazhan); assay: Safety test of control experiments on rice
Source text: as §2

[10] = test system: rice and Echinochloa crusgali; assay: Herbicide selection index between rice and Echinochloa crusgali; details: average dose causing 10% phytotoxicity to rice divided by average dose causing 90% control efficiency to Echinochloa crusgali

Structure (SMILES): CSc1c(C(F)(F)F)ccc(C(=O)Nc2nnc(C)o2)c1F [Compound 1-1]
- Control effect of (i) alone at corresponding dose ([1]; Cyperus difformis, (i) 1 g a.i./mu): 6.2%
- Control effect of (i) alone at corresponding dose ([1]; Cyperus difformis, (i) 5 g a.i./mu): 30.6%
- Control effect of (i) alone at corresponding dose ([1]; Echinochloa phyllopogon, (i) 1 g a.i./mu): 8.3%
- Control effect of (i) alone at corresponding dose ([1]; Echinochloa phyllopogon, (i) 2 g a.i./mu): 18.7%
- Control effect of (i) alone at corresponding dose ([1]; Echinochloa phyllopogon, (i) 3 g a.i./mu): 43.1%
- Control effect of (i) alone at corresponding dose ([1]; Leptochloa chinensis, (i) 5 g a.i./mu): 3.8%
- Control effect of (i) alone at corresponding dose ([1]; Leptochloa chinensis, (i) 15 g a.i./mu): 20.3%
- Control effect of (i) alone at corresponding dose ([1]; Monochoria vaginalis, (i) 5 g a.i./mu): 9.6%
- Control effect of (i) alone at corresponding dose ([1]; Monochoria vaginalis, (i) 6 g a.i./mu): 12.3%
- Control effect of (i) alone at corresponding dose ([1]; Monochoria vaginalis, (i) 7.5 g a.i./mu): 15.1%
- Control effect of (i) alone at corresponding dose ([1]; Monochoria vaginalis, (i) 15 g a.i./mu): 23.9%
- Control effect of (i) alone at corresponding dose ([1]; Sagittaria trifolia, (i) 1 g a.i./mu): 10.9%
- Control effect of (i) alone at corresponding dose ([1]; Sagittaria trifolia, (i) 5 g a.i./mu): 33.5%
- Stellaria media (activity level) ([2]; Table 2, dose 60 g a.i./ha): 3 (Level 3: growth control rate is greater than or equal to 40% and less than 60%)
- Stellaria media (activity level) ([2]; Table 2, dose 125 g a.i./ha): 4 (Level 4: growth control rate is greater than or equal to 60% and less than 85%)
- Stellaria media (activity level) ([2]; Table 2, dose 250 g a.i./ha): 4 (Level 4: growth control rate is greater than or equal to 60% and less than 85%)
- Stellaria media (activity level) ([2]; Table 2, dose 500 g a.i./ha): 4 (Level 4: growth control rate is greater than or equal to 60% and less than 85%)
- Amaranthus retroflexus (activity level) ([3]; Table 2, dose 60 g a.i./ha): 4 (Level 4: growth control rate is greater than or equal to 60% and less than 85%)
- Amaranthus retroflexus (activity level) ([3]; Table 2, dose 125 g a.i./ha): 4 (Level 4: growth control rate is greater than or equal to 60% and less than 85%)
- Amaranthus retroflexus (activity level) ([3]; Table 2, dose 250 g a.i./ha): 4 (Level 4: growth control rate is greater than or equal to 60% and less than 85%)
- Amaranthus retroflexus (activity level) ([3]; Table 2, dose 500 g a.i./ha): 4 (Level 4: growth control rate is greater than or equal to 60% and less than 85%)
- Abutilion theophrasti (activity level) ([4]; Table 2, dose 60 g a.i./ha): 2 (Level 2: growth control rate is greater than or equal to 20% and less than 40%)
- Abutilion theophrasti (activity level) ([4]; Table 2, dose 125 g a.i./ha): 4 (Level 4: growth control rate is greater than or equal to 60% and less than 85%)
- Abutilion theophrasti (activity level) ([4]; Table 2, dose 250 g a.i./ha): 4 (Level 4: growth control rate is greater than or equal to 60% and less than 85%)
- Abutilion theophrasti (activity level) ([4]; Table 2, dose 500 g a.i./ha): 4 (Level 4: growth control rate is greater than or equal to 60% and less than 85%)
- Abutilon theophrasti (activity level) ([4]; Table 3, dose 60 g a.i./ha): 2 (Level 2: growth control rate is greater than or equal to 20% and less than 40%)
- Abutilon theophrasti (activity level) ([4]; Table 3, dose 120 g a.i./ha): 4 (Level 4: growth control rate is greater than or equal to 60% and less than 85%)
- Setaria viridis (activity level) ([5]; Table 3, dose 7.5 g a.i./ha): 0 (Level 0: growth control rate is less than 5%)
- Setaria viridis (activity level) ([5]; Table 3, dose 15 g a.i./ha): 0 (Level 0: growth control rate is less than 5%)
- Setaria viridis (activity level) ([5]; Table 3, dose 30 g a.i./ha): 1 (Level 1: growth control rate is greater than or equal to 5% and less than 20%)
- Setaria viridis (activity level) ([5]; Table 3, dose 60 g a.i./ha): 1 (Level 1: growth control rate is greater than or equal to 5% and less than 20%)
- Setaria viridis (activity level) ([5]; Table 3, dose 120 g a.i./ha): 2 (Level 2: growth control rate is greater than or equal to 20% and less than 40%)
- Digitaria sanguinalis (activity level) ([6]; Table 2, dose 60 g a.i./ha): 1 (Level 1: growth control rate is greater than or equal to 5% and less than 20%)
- Digitaria sanguinalis (activity level) ([6]; Table 2, dose 125 g a.i./ha): 2 (Level 2: growth control rate is greater than or equal to 20% and less than 40%)
- Digitaria sanguinalis (activity level) ([6]; Table 2, dose 250 g a.i./ha): 3 (Level 3: growth control rate is greater than or equal to 40% and less than 60%)
- Digitaria sanguinalis (activity level) ([6]; Table 2, dose 500 g a.i./ha): 4 (Level 4: growth control rate is greater than or equal to 60% and less than 85%)
- Digitaria sanguinahs (activity level) ([6]; Table 3, dose 7.5 g a.i./ha): 0 (Level 0: growth control rate is less than 5%)
- Digitaria sanguinahs (activity level) ([6]; Table 3, dose 15 g a.i./ha): 0 (Level 0: growth control rate is less than 5%)
- Digitaria sanguinahs (activity level) ([6]; Table 3, dose 30 g a.i./ha): 1 (Level 1: growth control rate is greater than or equal to 5% and less than 20%)
- Digitaria sanguinahs (activity level) ([6]; Table 3, dose 60 g a.i./ha): 1 (Level 1: growth control rate is greater than or equal to 5% and less than 20%)
- Digitaria sanguinahs (activity level) ([6]; Table 3, dose 120 g a.i./ha): 2 (Level 2: growth control rate is greater than or equal to 20% and less than 40%)
- Echinochloa crusgah (activity level) ([7]; Table 2, dose 60 g a.i./ha): 2 (Level 2: growth control rate is greater than or equal to 20% and less than 40%)
- Echinochloa crusgah (activity level) ([7]; Table 2, dose 125 g a.i./ha): 4 (Level 4: growth control rate is greater than or equal to 60% and less than 85%)
- Echinochloa crusgah (activity level) ([7]; Table 2, dose 250 g a.i./ha): 4 (Level 4: growth control rate is greater than or equal to 60% and less than 85%)
- Echinochloa crusgah (activity level) ([7]; Table 2, dose 500 g a.i./ha): 4 (Level 4: growth control rate is greater than or equal to 60% and less than 85%)
- Echinochloa crusgali (activity level) ([7]; Table 3, dose 7.5 g a.i./ha): 0 (Level 0: growth control rate is less than 5%)
- Echinochloa crusgali (activity level) ([7]; Table 3, dose 15 g a.i./ha): 1 (Level 1: growth control rate is greater than or equal to 5% and less than 20%)
- Echinochloa crusgali (activity level) ([7]; Table 3, dose 30 g a.i./ha): 2 (Level 2: growth control rate is greater than or equal to 20% and less than 40%)
- Echinochloa crusgali (activity level) ([7]; Table 3, dose 60 g a.i./ha): 2 (Level 2: growth control rate is greater than or equal to 20% and less than 40%)

Structure (SMILES): CCCSc1c(C(F)(F)F)ccc(C(=O)Nc2nnc(C)o2)c1F [Compound 1-7]
- Japonica rice (Huaidao No. 5) (plant damage level) ([8]; Dose 250 g a.i./ha): 0 (Level 0: growth control rate is less than 5%)
- Indica rice (Huanghuazhan) (plant damage level) ([9]; Dose 250 g a.i./ha): 0 (Level 0: growth control rate is less than 5%)
- Selection index between rice and Echinochloa crusgali [10]: >5
- Stellaria media (activity level) ([2]; Table 2, dose 250 g a.i./ha): 5 (Level 5: growth control rate is above 85%)
- Stellaria media (activity level) ([2]; Table 2, dose 500 g a.i./ha): 5 (Level 5: growth control rate is above 85%)
- Amaranthus retroflexus (activity level) ([3]; Table 2, dose 250 g a.i./ha): 5 (Level 5: growth control rate is above 85%)
- Amaranthus retroflexus (activity level) ([3]; Table 2, dose 500 g a.i./ha): 5 (Level 5: growth control rate is above 85%)
- Abutilion theophrasti (activity level) ([4]; Table 2, dose 250 g a.i./ha): 5 (Level 5: growth control rate is above 85%)
- Abutilion theophrasti (activity level) ([4]; Table 2, dose 500 g a.i./ha): 5 (Level 5: growth control rate is above 85%)
- Digitaria sanguinalis (activity level) ([6]; Table 2, dose 250 g a.i./ha): 5 (Level 5: growth control rate is above 85%)
- Digitaria sanguinalis (activity level) ([6]; Table 2, dose 500 g a.i./ha): 5 (Level 5: growth control rate is above 85%)
- Echinochloa crusgah (activity level) ([7]; Table 2, dose 250 g a.i./ha): 5 (Level 5: growth control rate is above 85%)
- Echinochloa crusgah (activity level) ([7]; Table 2, dose 500 g a.i./ha): 5 (Level 5: growth control rate is above 85%)

Structure (SMILES): CCCS(=O)(=O)c1c(C(F)(F)F)ccc(C(=O)Nc2nnc(C)o2)c1F [Compound 1-9]
- Japonica rice (Huaidao No. 5) (plant damage level) ([8]; Dose 250 g a.i./ha): 0 (Level 0: growth control rate is less than 5%)
- Indica rice (Huanghuazhan) (plant damage level) ([9]; Dose 250 g a.i./ha): 0 (Level 0: growth control rate is less than 5%)
- Selection index between rice and Echinochloa crusgali [10]: >5
- Stellaria media (activity level) ([2]; Table 2, dose 125 g a.i./ha): 5 (Level 5: growth control rate is above 85%)
- Stellaria media (activity level) ([2]; Table 2, dose 250 g a.i./ha): 5 (Level 5: growth control rate is above 85%)
- Amaranthus retroflexus (activity level) ([3]; Table 2, dose 125 g a.i./ha): 5 (Level 5: growth control rate is above 85%)
- Amaranthus retroflexus (activity level) ([3]; Table 2, dose 250 g a.i./ha): 5 (Level 5: growth control rate is above 85%)
- Abutilion theophrasti (activity level) ([4]; Table 2, dose 125 g a.i./ha): 5 (Level 5: growth control rate is above 85%)
- Abutilion theophrasti (activity level) ([4]; Table 2, dose 250 g a.i./ha): 5 (Level 5: growth control rate is above 85%)
- Digitaria sanguinalis (activity level) ([6]; Table 2, dose 125 g a.i./ha): 5 (Level 5: growth control rate is above 85%)
- Digitaria sanguinalis (activity level) ([6]; Table 2, dose 250 g a.i./ha): 5 (Level 5: growth control rate is above 85%)
- Echinochloa crusgah (activity level) ([7]; Table 2, dose 125 g a.i./ha): 5 (Level 5: growth control rate is above 85%)
- Echinochloa crusgah (activity level) ([7]; Table 2, dose 250 g a.i./ha): 5 (Level 5: growth control rate is above 85%)

Structure (SMILES): Cc1nnc(NC(=O)c2ccc(C(F)(F)F)c(S(C)(=O)=O)c2C)o1 [Control Compound B, reference compound]
- Japonica rice (Huaidao No. 5) (plant damage level) ([8]; Dose 125 g a.i./ha): 3 (Level 3: growth control rate is greater than or equal to 40% and less than 60%)
- Japonica rice (Huaidao No. 5) (plant damage level) ([8]; Dose 250 g a.i./ha): 3 (Level 3: growth control rate is greater than or equal to 40% and less than 60%)
- Indica rice (Huanghuazhan) (plant damage level) ([9]; Dose 125 g a.i./ha): 3 (Level 3: growth control rate is greater than or equal to 40% and less than 60%)
- Indica rice (Huanghuazhan) (plant damage level) ([9]; Dose 250 g a.i./ha): 4 (Level 4: growth control rate is greater than or equal to 60% and less than 85%)
- Selection index between rice and Echinochloa crusgali [10]: 0.8

Structure (SMILES): Cc1nnc(NC(=O)c2ccc(C(F)(F)F)c(N3CCCC3=O)c2Cl)o1 [Control Compound C, reference compound]
- Japonica rice (Huaidao No. 5) (plant damage level) ([8]; Dose 125 g a.i./ha): 4 (Level 4: growth control rate is greater than or equal to 60% and less than 85%)
- Indica rice (Huanghuazhan) (plant damage level) ([9]; Dose 125 g a.i./ha): 5 (Level 5: growth control rate is above 85%)
- Selection index between rice and Echinochloa crusgali [10]: 1.1

Structure (SMILES): CCS(=O)(=O)c1c(C(F)(F)F)ccc(C(=O)Nc2nnc(C)o2)c1Cl [Control Compound D, reference compound]
- Japonica rice (Huaidao No. 5) (plant damage level) ([8]; Dose 60 g a.i./ha): 5 (Level 5: growth control rate is above 85%)
- Indica rice (Huanghuazhan) (plant damage level) ([9]; Dose 60 g a.i./ha): 5 (Level 5: growth control rate is above 85%)
- Selection index between rice and Echinochloa crusgali [10]: 1
